Several values for one entry are separate records, joined by “and”; a condition that tells them apart may be missing. Equal values may be shown once.
How the values were obtained:
α2A receptor = target: T1, α2A receptor (Mus musculus, UniProt Q01338); conditions: 10 nM; cited from earlier work
T1 sequence (Q01338 1-465): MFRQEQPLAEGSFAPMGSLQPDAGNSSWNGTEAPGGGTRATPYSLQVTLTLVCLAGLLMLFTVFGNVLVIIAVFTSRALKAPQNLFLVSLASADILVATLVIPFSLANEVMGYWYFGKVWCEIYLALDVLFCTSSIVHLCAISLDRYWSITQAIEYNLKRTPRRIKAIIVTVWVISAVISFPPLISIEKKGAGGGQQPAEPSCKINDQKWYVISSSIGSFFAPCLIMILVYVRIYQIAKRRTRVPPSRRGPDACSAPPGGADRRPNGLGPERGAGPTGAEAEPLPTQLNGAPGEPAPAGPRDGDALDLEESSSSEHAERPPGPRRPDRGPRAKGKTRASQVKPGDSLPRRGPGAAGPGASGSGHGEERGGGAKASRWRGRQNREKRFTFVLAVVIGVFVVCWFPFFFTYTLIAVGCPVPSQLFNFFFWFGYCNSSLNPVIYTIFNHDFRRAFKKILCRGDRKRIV

[1] = tested on: ODR-10 expressing HEK 293 cells; conditions: cited from earlier work
ODR-10 receptor (OGOR) = experiment: cell-free BRET^2 assay with dual-labelled ODR-10 (OGOR) in yeast membrane preparations; type: biochemical, C. elegans
Procedure: Cells were harvested by centrifugation at 1500×g (4° C.) for 5 minutes, washed in water and resuspended in 4 mL of Dulbecco's phosphate buffered saline (D-PBS) or 1×PBS, containing 1000 mg/L glucose, 36 mg/L sodium pyruvate, calcium and magnesium (Invitrogen). The cells were lysed by French press (˜18000 psi) and the soluble protein fractions were isolated by centrifugation at 9300×g (4° C.) for 15 minutes. Following this the soluble protein fraction was transferred to 13.15 mL polycarbonate thick wall centrifuge tubes and ultracentrifuged at 40,000 rpm (Beckman Coulter L-80 ultra-centrifuge) for 1 hour at 4° C. The supernatant was decanted and the membrane pellet resuspended in 1 mL of D-PBD or 1×PBS, and left overnight at 4° C. to solubilise.
Simultaneous dual emission RET measurements were carried out with a POLARstar OPTIMA microplate reader (BMG LabTech). Simultaneous emission measurements used a BRET^2 filter set (410-80/515-30) with the set respective gains for each channel (3300/4095).
To assess the relative concentrations of BRET^2 tagged receptor samples the fluorescence intensity of the sample was determined from spectral scans and the sample amount normalized by the OGOR fluorescence intensity. To convert GFP^2 intensity into concentration purified GFP^2 protein was assayed at different concentrations to produce a calibration graph relating concentration to fluorescence intensity. […] Rearranging the line of best fit equation (y=271x+233.31) results in conversion of fluorescence intensity to concentration. […]
RET analysis was carried out in 96-well plates (Perkin-Elmer) and involved incubating the specified dual tagged receptor protein (OGOR) for 45 minutes with 1 μM of each particular odorant. […] A background signal was recorded by assaying a sample of D-PBS (or 1×PBS). […]
For BRET measurements Clz400a substrate (5 μM) was added following the 45 minute incubation time and the signal recorded using a 0.50s integration time over a 5 second period. Following addition of Clz400a the well was re-sealed while the signal was recorded to reduce cross-contamination of samples. […]

OGOR mutant (H110Y) = experiment: cell-free BRET^2 assay with OGOR mutant (H110Y), negative control; type: biochemical, C. elegans; conditions: μM concentrations of diacetyl
Procedure: Site-directed mutagensis was carried out with OGOR in pDONR201 vector (see above) as the double stranded template. The histidine 110 to tyrosine (H110Y) mutation was performed using the Stratagene Quickchange site directed mutagenesis kit according to standard protocols using the following primers; 5′-[…]-3′ (WT) (SEQ ID NO:43) and 5′-[…] GTG-3′ (H110Y antisense) (SEQ ID NO:44).
PCR was performed with Pfx50™ standard ingredients (Invitrogen) and conditions were as follows 94° C. 2 mins, 16 cycles of 94° C. 30 secs, 55° C. 1 minute, 68° C. 6.8 minutes. Following sequencing the OGOR mutant was then subcloned into pYES-DEST52 (Invitrogen) using Gateway® technology (5′ and 3′ attB sites were included in original OGOR sequence) for subsequent expression in S. cerevisiae.
RET analysis was carried out in 96-well plates (Perkin-Elmer) and involved incubating the specified dual tagged receptor protein (OGOR) for 45 minutes with 1 μM of each particular odorant. The final volume was 100 μL and included 10 μL of odorant, receptor protein sample (see ‘Normalization of sample concentration’ section), D-PBS (or 1×PBS) and 5 μL of Clz400a (5 μM). A background signal was recorded by assaying a sample of D-PBS (or 1×PBS). During the incubation time the 96-well plate wells were sealed with Topseal™—A (Packard) with each sample area individually sealed. […]

whole-cell BRET^2 assay = type: cell-based; conditions: 1 μM, 45 minutes incubation, P≦0.05
Procedure: FIG. 16. BRET^2 signal upon incubation (45 minutes) with 1 μM of diacetyl (mean±S.D., n=3) monitored using a whole-cell and cell-free assay systems.

ODR-10 receptor (OCOY) = experiment: cell-free FRET assay with dual-labelled ODR-10 (OCOY); type: biochemical, C. elegans; conditions: μM concentrations of diacetyl
Procedure: All spectral scans were recorded with a plate-reading SpectraMax M2 spectrofluorimeter (Molecular Devices). 100 μL aliquots of membrane preparations sample were scanned using 96-well plates (Perkin-Elmer). Fluorescence spectral scans recorded from 450 to 600 nm with an excitation wavelength of 420 nm using a 455 nm emission cut-off filter.
To compare the sensitivity of the BRET^2 system to the FRET system for monitoring GPCR activation the BRET^2 components used to tag the ODR-10 receptor (OGOR) were replaced with FRET components resulting in the insertion of CFP into the 3rd intracellular loop and YFP at the C-terminus (OCOY). The CFP (mCFP) (SEQ ID NO:45) and YFP (mCitrine) (SEQ ID NO:46) derivatives were both monomeric and codon optimized (EUROSCARF) for yeast expression (SEQ ID NOs 47 and 48 respectively).
The OCOY sequence flanked by KpnI and XhoI restriction sites was synthesised by Genscript. The OCOY sequence was inserted into the KpnI and XhoI sites of the pENTR11 vector. These were then recombined into pYES-DEST52 (Invitrogen) using Gateway® technology for subsequent expression in S. cerevisiae. […]
To assess the relative concentrations of dual-tagged receptor samples the fluorescence intensity of the sample was determined from spectral scans and the sample amount normalized by the OCOY fluorescence intensity. […]

Str112 receptor (TGTR) = experiment: cell-free BRET^2 assay with dual-tagged Str112 (TGTR); type: biochemical, C. elegans; conditions: 1 μM ligand, 10 nM TGTR; for BRET^2 signal compared to the response of TGTR to water, significance: P≦0.05
Source text: The TGTR sequence flanked by NcoI and NotI restriction sites was synthesised by Genscript. The TGTR sequence was inserted into the NcoI and NotI sites of the pENTR11 vector. These were then recombined into pYES-DEST52 (Invitrogen) using Gateway® technology for subsequent expression in S. cerevisiae.
The same expression protocol was used for the expression of TGTR in InVSC1 as for OGOR expression. The TGTR coding sequence is provided as SEQ ID NO:51, whereas the amino acid sequence is provided as SEQ ID NO:52.
The same RET analysis protocol as described for the OGOR selectivity studies. 1 μM of the ligands pyruvic acid, citric acid, ethyl acetate, acetoin and diacteyl was assayed with 10 nM of TGTR
The bacterial strain OP50 was grown in LB overnight at 37° C. with shaking (200 rpm). E. coli strain OP50 is usually used as a food source for nematode growth in the laboratory (Brenner, 1974). Two assays were performed using the OP50 bacterial culture. The first assay was the addition of 10 μL of the bacterial culture or 10 μL of LB to 10 nM TGTR. The second assay required that 1 mL of the bacterial culture was placed in a microcentrifuge tube and centrifuged at 10000×g for 1 minute. 10 μL of the supernatant, following decanting into a fresh microcentrifuge tube, or 10 μL of LB was added to 10 nM TGTR. Following bacterial sample addition the same protocol was followed as for the OGOR RET analysis.

PTHR = target: T2, PTHR (Homo sapiens, UniProt Q03431); conditions: 1 μM; cited from earlier work
T2 sequence (Q03431 27-593): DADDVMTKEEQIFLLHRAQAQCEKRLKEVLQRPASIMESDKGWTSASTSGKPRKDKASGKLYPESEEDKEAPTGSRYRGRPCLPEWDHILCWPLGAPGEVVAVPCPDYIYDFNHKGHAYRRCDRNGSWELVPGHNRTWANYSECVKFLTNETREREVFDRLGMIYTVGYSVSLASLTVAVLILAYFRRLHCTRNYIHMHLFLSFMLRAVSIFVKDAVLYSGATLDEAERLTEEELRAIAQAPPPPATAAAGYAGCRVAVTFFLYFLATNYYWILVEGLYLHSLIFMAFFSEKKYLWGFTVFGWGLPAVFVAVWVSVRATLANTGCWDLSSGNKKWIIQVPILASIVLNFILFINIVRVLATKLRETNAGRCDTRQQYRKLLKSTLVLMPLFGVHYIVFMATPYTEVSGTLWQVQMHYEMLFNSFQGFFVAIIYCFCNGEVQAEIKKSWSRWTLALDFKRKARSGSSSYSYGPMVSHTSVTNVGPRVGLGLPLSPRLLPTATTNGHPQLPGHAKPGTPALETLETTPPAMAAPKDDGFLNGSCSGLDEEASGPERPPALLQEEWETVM

NC[C@H](O)c1ccc(O)c(O)c1 [norepinephrine]
change in the FRET signal upon binding (α2A receptor): ~5%

CC(=O)C(C)=O [diacetyl]
Ca^2+ elevation response ([1]; ODR-10 expressing HEK 293 cells): the only volatile compound to produce a Ca^2+ elevation response
apparent affinity (EC50) as part per million ([1]; expressed in human cells, calcium imaging): ~0.2 ppm
EC50 ([1]; expressed in human cells, calcium imaging, read-out: apparent affinity (EC50) of ODR-10 for diacetyl): 2300 nM
decrease in the BRET^2 signal, cell-free assay system (ODR-10 receptor (OGOR); 1 μM, 45 minutes incubation, Example 7, P≦0.05): 52%
change in BRET^2 signal compared to the solvent (water) response (ODR-10 receptor (OGOR); OGOR, μM concentrations (1 μM) of ligand, 45 minutes incubation, decrease in signal): 37.5% and 32.4%
EC50 expressed as parts per quadrillion (ODR-10 receptor (OGOR); equivalent of the fM EC50): 0.31 ppq
BRET^2 response to diacetyl (OGOR mutant (H110Y)): 4.1%
response versus solvent (water) response, significance (OGOR mutant (H110Y)): not significantly different
change in the BRET^2 signal, whole cell assay (whole-cell BRET^2 assay): no significant change
reduction in FRET ratio (intensity at 520 nm/intensity at 480 nm) (ODR-10 receptor (OCOY)): 7.6%
response versus solvent (water) response, significance (ODR-10 receptor (OCOY)): significantly different

CC(=O)C(C)O (stereo not shown) [acetoin]
increase in the BRET^2 signal (Str112 receptor (TGTR)): 20.8%
BRET^2 signal compared to the response of TGTR to water, significance (Str112 receptor (TGTR)): significantly higher

CC(=O)C(=O)O [pyruvic acid]
BRET^2 signal compared to the response of TGTR to water, significance (Str112 receptor (TGTR)): significantly higher

PTH: parathyroid hormone, agonist of PTHR, literature value
change in the FRET signal upon binding (PTHR): ~20%
